The structures appear in SMILES notation. ≈ marks a conversion by molar mass, not a printed value.

From patent US20210298332A1, “AGENT FOR SUPPRESSING HEAT-RESISTANT ACIDOPHILIC BACTERIA, METHOD FOR PREVENTING CONTAMINATION WITH HEAT-RESISTANT ACIDOPHILIC BACTERIA, AND BEVERAGE” (SUNTORY HOLDINGS LIMITED, priority 2018, published 2021) come the findings set out here.

The experiment relates to Thermo-Acidophilic Bacilli (Alicyclobacillus acidoterrestris ATCC 49025). Nature of the experiment: Evaluation of antibacterial action (agar plate dilution MIC). The format is cell-based. How it is done:
Thermo-Acidophilic Bacilli (Alicyclobacillus acidoterrestris ATCC 49025) were pre-incubated as test bacteria (conditions: YSG broth, 50±1° C., two days, aerobic conditions), so that a test bacterial solution was obtained. A 10 mg/mL xanthohumol solution and serial two-fold dilutions thereof were prepared using 99.5% ethanol. Each of the solution and dilutions was added to a medium (YSG agar medium) whose temperature is maintained at 50±1° C. after being sterilized and dissolved at a ratio of 1/99 (volume of xanthohumol solution/volume of medium solution) and mixed sufficiently. The resulting mixtures were each dispensed into a petri dish and solidified, whereby agar plate media were produced. Each of the agar plate media was smeared with the pre-incubated test bacterial solution, followed by incubation at 50±1° C. for five days under aerobic conditions. The lowest concentration where the growth of the bacteria was prevented was taken as the minimum inhibitory concentration (MIC).

On to `COc1cc(O)c(CC=C(C)C)c(O)c1C(=O)/C=C/c1ccc(O)cc1` [Xanthohumol], for which the “growth of Thermo-Acidophilic Bacilli” value is given as “inhibit the growth”. In addition, the minimal inhibitory concentration (MIC) (ATCC49025, 120 h, YSG agar medium, 50±1° C., five days, aerobic conditions) is 3.13 µg/mL (≈ 8.83 µM).

The MIC is the least concentration at which growth counts as inhibited.
